Like-named read-outs stand apart in the source and are kept apart here.
What was measured:
[1] = tested on: IL-1β, human peripheral blood mononuclear cells (PBMC); assay: PBMC cell assay: IL-1β assay with human PBMC or enriched adherent mononuclear cells, LPS-stimulated; type: cell-based
Procedure, shortened: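 Buffy-coat human PBMC at 6×10^6 cells/ml, or adherent monocytes enriched by 1 h adherence (2.5−3.0×10^5 cells/well), are given 5–6 compound dilutions bracketing the ICE Ki (final DMSO 0.1%) plus LPS at a final 5 ng/ml. They are incubated 16–18 hr at 37 °C, 5% CO2, and supernatant mature IL-1β is measured by ELISA, with duplicate cultures and duplicate ELISAs.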

IL-1β, human whole blood = assay: Whole blood assay for IL-1β production; type: cell-based; conditions: read-out: Whole human blood IC50
Procedure, shortened: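 Human whole blood collected on Na2EDTA was treated with serially diluted compound in saline and then stimulated with LPS at 5.0 ng/ml final, for 16-18 h at 30 °C, in duplicate or triplicate. Plasma IL-1β was measured by ELISA at 1:200 dilution.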

[2] = * = values obtained upon reassay
[3] = Homo sapiens, PBMC, * = values obtained upon reassay
[4] = Homo sapiens, * = values obtained upon reassay

## O=C[C@H](CC(=O)O)NC(=O)[C@@H]1CCCN2C(=O)CC[C@H](NC(=O)c3nccc4ccccc34)C(=O)N12 [Compound 412, [3S(1S,9S)]3-[6,10-Dioxo-9-(isoquinolin-1-oylamino)-1,2,3,4,7,8,9,10-octahydro-6H-pyridazino[1,2-a][1,2]diazepine-1-carboxamido]-4-oxobutanoic acid]
[1]; [2]
  IC50: 660 nM
[1]; [3]
  IC50: 580 nM
IL-1β, human whole blood; [2]
  IC50: 1000 nM
IL-1β, human whole blood; [4]
  IC50: 700 nM

## O=C[C@H](CC(=O)O)NC(=O)[C@@H]1CCCN2C(=O)CC[C@H](NC(=O)c3ccc(Cl)cc3)C(=O)N12 [Compound 416]
[1]; [3]
  IC50: 1200 nM
IL-1β, human whole blood; [4]
  IC50: 3400 nM

## COc1cc(C(=O)N[C@H]2CCC(=O)N3CCC[C@@H](C(=O)N[C@H](C=O)CC(=O)O)N3C2=O)cc(OC)c1OC [Compound 417, [3S(1S,9S)]3-[6,10-Dioxo-1,2,3,4,7,8,9,10-octahydro-9-(3,4,5-trimethoxybenzoylamino)-6H-pyridazino[1,2-a][1,2]diazepine-1-carboxamido]-4-oxobutanoic acid]
[1]; [3]
  IC50: 2000 nM
IL-1β, human whole blood; [4]
  IC50: 6000 nM

## Cc1nc(C)c(C(=O)N[C@H]2CCC(=O)N3CCC[C@@H](C(=O)N[C@H](C=O)CC(=O)O)N3C2=O)s1 [Compound 423]
[1]; [2]
  IC50: 1800 nM
[1]; [3]
  IC50: 2100 nM
IL-1β, human whole blood; [4]
  IC50: 1500 nM

## O=C[C@H](CC(=O)O)NC(=O)[C@@H]1CCCN2C(=O)CC[C@H](NC(=O)c3ccc4nc[nH]c4c3)C(=O)N12 [Compound 434]
[1]; [2]
  IC50: 1200 nM
[1]; [3]
  IC50: 1600 nM
IL-1β, human whole blood; [2]
  IC50: 1300 nM
IL-1β, human whole blood; [4]
  IC50: 1800 nM

## O=C[C@H](CC(=O)O)NC(=O)[C@@H]1CCCN2C(=O)CC[C@H](NC(=O)c3cc4ccsc4s3)C(=O)N12 [Compound 442]
[1]; [3]
  IC50: 900 nM
IL-1β, human whole blood; [4]
  IC50: 2000 nM

## CC(=O)Nc1cccc(C(=O)N[C@H]2CCC(=O)N3CCC[C@@H](C(=O)N[C@H](C=O)CC(=O)O)N3C2=O)c1 [Compound 450, [3S(1S,9S)]3-{9-[(3-Acetamido)benzamido]-6,10-dioxo-1,2,3,4,7,8,9,10-octahydro-6H-pyridazino[1,2-a][1,2]diazepine-1-carboxamido}-4-oxobutanoic acid]
[1]; [3]
  IC50: 800 nM
IL-1β, human whole blood; [2]
  IC50: 1700 nM
IL-1β, human whole blood; [4]
  IC50: 2200 nM

## O=C[C@H](CC(=O)O)NC(=O)[C@@H]1CCCN2C(=O)CC[C@H](NC(=O)c3cccc(Cl)c3)C(=O)N12 [Compound 455]
[1]; [3]
  IC50: 400 nM
IL-1β, human whole blood; [2]
  IC50: 2600 nM
IL-1β, human whole blood; [4]
  IC50: 2800 nM

## CN(C)c1cccc(C(=O)N[C@H]2CCC(=O)N3CCC[C@@H](C(=O)N[C@H](C=O)CC(=O)O)N3C2=O)c1 [Compound 470]
[1]; [3]
  IC50: 500 nM
IL-1β, human whole blood; [2]
  IC50: 500 nM
IL-1β, human whole blood; [4]
  IC50: 360 nM

## CN(C)c1ccc(C(=O)N[C@H]2CCC(=O)N3CCC[C@@H](C(=O)N[C@H](C=O)CC(=O)O)N3C2=O)cc1 [Compound 471]
[1]; [3]
  IC50: 750 nM
IL-1β, human whole blood; [4]
  IC50: 400 nM

## O=C[C@H](CC(=O)O)NC(=O)[C@@H]1CCCN2C(=O)CC[C@H](NC(=O)c3cc4ccccc4[nH]3)C(=O)N12 [Compound 475, [3S(1S,9S)]3-[6,10-Dioxo-9-(indol-2-oylamino)-1,2,3,4,7,8,9,10-octahydro-6H-pyridazino[1,2-a][1,2]diazepine-1-carboxamido]-4-oxobutanoic acid]
[1]; [2]
  IC50: 650 nM
[1]; [3]
  IC50: 690 nM
IL-1β, human whole blood; [2]
  IC50: 350 nM
IL-1β, human whole blood; [4]
  IC50: 400 nM

## CC(C)C(=O)Nc1ccc(C(=O)N[C@H]2CCC(=O)N3CCC[C@@H](C(=O)N[C@H](C=O)CC(=O)O)N3C2=O)cc1 [Compound 484]
[1]; [2]
  IC50: 1400 nM
[1]; [3]
  IC50: 1550 nM
IL-1β, human whole blood; [4]
  IC50: 5000 nM

## O=C[C@H](CC(=O)O)NC(=O)[C@@H]1CCCN2C(=O)CC[C@H](NC(=O)c3ccc(NC(=O)Cc4ccccc4)cc3)C(=O)N12 [Compound 486, [3S(1S,9S)]3-{6,10-Dioxo-1,2,3,4,7,8,9,10-octahydro-9-[4-(phenylacetamido)benzamido]-6H-pyridazino[1,2-a][1,2]diazepine-1-carboxamido}-4-oxobutanoic acid]
[1]; [2]
  IC50: 570 nM
[1]; [3]
  IC50: 480 nM
IL-1β, human whole blood; [4]
  IC50: 500 nM

## CC(C)CC(=O)Nc1ccc(C(=O)N[C@H]2CCC(=O)N3CCC[C@@H](C(=O)N[C@H](C=O)CC(=O)O)N3C2=O)cc1 [Compound 487, [3S(1S,9S)]3-{6,10-Dioxo-9-[4-(3-methylbutan-1-oylamino)benzamido]-1,2,3,4,7,8,9,10-octahydro-6H-pyridazino[1,2-a][1,2]diazepine-1-carboxamido}-4-oxobutanoic acid]
[1]; [2]
  IC50: 950 nM
[1]; [3]
  IC50: 650 nM
IL-1β, human whole blood; [2]
  IC50: 400 nM
IL-1β, human whole blood; [4]
  IC50: 500 nM

## COCC(=O)N1C[C@H](NC(=O)c2ccccc2)C(=O)N(CC(=O)N[C@H](C=O)CC(=O)O)c2ccccc21 [Compound 605e, (3S)-3-[(3S)-2-Oxo-3-benzoylamino-5-methoxyacetyl-2,3,4,5-tetrahydro-1H-1,5-benzodiazepin-1-acetylamino]-4-oxo-butyric acid]
[1]; [3]
  IC50: 2250 nM
IL-1β, human whole blood; [4]
  IC50: > 10000 nM

## CC(=O)N1C[C@H](NC(=O)c2ccc3ccccc3c2)C(=O)N(CC(=O)N[C@H](C=O)CC(=O)O)c2ccccc21 [Compound 605n]
[1]; [3]
  IC50: 2100 nM
IL-1β, human whole blood; [4]
  IC50: > 20000 nM

## CC(=O)N1C[C@H](NC(=O)c2cc(Cl)c(O)c(Cl)c2)C(=O)N(CC(=O)N[C@H](C=O)CC(=O)O)c2ccccc21 [Compound 656, (3S)-3-[(3S)-2-Oxo-3-(3,5-dichloro, 4-hydroxybenzoyl)amino-5-acetyl-2,3,4,5-tetrahydro-1H-1,5-benzodiazepine-1-acetylamino-]4-oxo-butyric acid]
[1]; Homo sapiens, PBMC, Table 17
  IC50: 2100 nM
IL-1β, human whole blood; Homo sapiens, Table 17
  IC50: 1600 nM

## O=C[C@H](CC(=O)O)NC(=O)CN1C(=O)[C@@H](NC(=O)c2cc(Cl)c(O)c(Cl)c2)CN(C(=O)CO)c2ccccc21 [Compound 662, (3S)-3-[(3S)-2-Oxo-3-(3,5-dichloro-4-hydroxybenzoyl)amino-5-(2-hydroxy)acetyl-2,3,4,5-tetrahydro-1H-1,5-benzodiazepine-1-acetylamino]-4-oxo-butyric acid]
[1]; Homo sapiens, PBMC, Table 17
  IC50: 1800 nM
IL-1β, human whole blood; Homo sapiens, Table 17
  IC50: 800 nM

## O=C[C@H](CC(=O)O)NC(=O)CN1C(=O)[C@@H](NC(=O)c2ccccc2)CN(C(=O)CO)c2ccccc21 [Compound 668, (3S)-3-[(3S)-2-Oxo-3-benzoylamino-5-(2-hydroxy)acetyl-2,3,4,5-tetrahydro-1H-1,5-benzodiazepine-1-acetylamino]-4-oxo-butyric acid]
[1]; Homo sapiens, PBMC, Table 17
  IC50: 5200 nM
IL-1β, human whole blood; Homo sapiens, Table 17
  IC50: 3700 nM

## CC(=O)N1C[C@H](NC(=O)c2cc(C)c(O)c(C)c2)C(=O)N(CC(=O)N[C@H](C=O)CC(=O)O)c2ccccc21 [Compound 671, (3S)-3-[(3S)-2-Oxo-3-(3,5-dimethyl-4-hydroxybenzoyl)amino-5-acetyl-2,3,4,5-tetrahydro-1H-1,5-benzodiazepine-1-acetylamino]-4-oxo-butyric acid]
[1]; Homo sapiens, PBMC, Table 17
  IC50: 2000 nM
IL-1β, human whole blood; Homo sapiens, Table 17
  IC50: 2500 nM

## Cc1cc(C(=O)N[C@H]2CN(C(=O)CO)c3ccccc3N(CC(=O)N[C@H](C=O)CC(=O)O)C2=O)cc(C)c1O [Compound 691a, (3S)-3-[(3S)-2-Oxo-3-(3,5-dimethyl-4-hydroxybenzoyl)amino-5-hydroxyacetyl-2,3,4,5-tetrahydro-1H-1,5-benzodiazepine-1-acetylamino]-4-oxo-butyric acid]
[1]; Homo sapiens, PBMC, Table 17
  IC50: 2900 nM
IL-1β, human whole blood; Homo sapiens, Table 17
  IC50: 1200 nM

## O=C[C@H](CC(=O)O)NC(=O)CN1C(=O)[C@@H](NC(=O)c2nccc3ccccc23)CN(C(=O)CO)c2ccccc21 [Compound 696, (3S)-3-[(3S)-2-Oxo-3-(isoquinolin-1-oyl)amino-5-hydroxyacetyl-2,3,4,5-tetrahydro-1H-1,5-benzodiazepine-1-acetylamino]-4-oxo-butyric acid]
[1]; Homo sapiens, PBMC, Table 17
  IC50: 2000 nM
IL-1β, human whole blood; Homo sapiens, Table 17
  IC50: 2900 nM

## O=C[C@H](CC(=O)O)NC(=O)[C@@H]1CCCN2C(=O)CCN(NC(=O)c3ccc4c(c3)OCO4)C(=O)N12 [Compound 1015, [3S(4S)]3-[6,10-Dioxo-7-(3,4-methylenedioxybenzoylamino)-1,2,3,4,7,8,9,10-octahydro-6H-pyridazino[1,2-a][1,2,4]triazepine-4-carboxamido]-4-oxobutanoic acid]
[1]; [3]
  IC50: 2500 nM
IL-1β, human whole blood; [4]
  IC50: 1700 nM

## CC(=O)Nc1ccc(C(=O)NN2CCC(=O)N3CCC[C@@H](C(=O)N[C@H](C=O)CC(=O)O)N3C2=O)cc1 [Compound 1018, [3S(4S)]3-{7-[(4-Acetamido)benzamido]-6,10-Dioxo-1,2,3,4,7,8,9,10-octahydro-6H-pyridazino[1,2-a][1,2,4]-triazepine-4-carboxamido}-4-oxobutanoic acid]
[1]; Homo sapiens, PBMC, Table 17
  IC50: 4000 nM
IL-1β, human whole blood; Homo sapiens, Table 17
  IC50: 5500 nM

## O=C[C@H](CC(=O)O)NC(=O)[C@@H]1CCCN2C(=O)CCN(NS(=O)(=O)c3ccccc3)C(=O)N12 [Compound 1027, [3S(4S)]3-(6,10-Dioxo-1,2,3,4,7,8,9,10-octahydro-7-phenylsulphonylamino-6H-pyridazino[1,2-a][1,2,4]triazepine-4-carboxamido)-4-oxobutanoic acid]
[1]; [3]
  IC50: > 20000 nM
IL-1β, human whole blood; [4]
  IC50: > 20000 nM

## O=C[C@H](CC(=O)O)NC(=O)[C@@H]1CCCN2C(=O)CCN(NC(=O)c3cc4ccccc4s3)C(=O)N12 [Compound 1053, [3S(4S)]3-[7-(Benzo[b]thiophene-2-carbonyl)amino-6,10-dioxo-1,2,3,4,7,8,9,10-octahydro-6H-pyridazino[1,2-a][1,2,4]triazepine-4-carboxamido]-4-oxobutanoic acid]
[1]; Homo sapiens, PBMC, Table 17
  IC50: 2000 nM
IL-1β, human whole blood; Homo sapiens, Table 17
  IC50: > 20000 nM

## O=C[C@H](CC(=O)O)NC(=O)[C@@H]1CCCN2C(=O)CCN(NC(=O)c3cc4ccccc4[nH]3)C(=O)N12 [Compound 1075, [3S(4S)]3-[6,10-Dioxo-7-(indole-2-carboxamido)-1,2,3,4,7,8,9,10-octahydro-6H-pyridazino[1,2-a][1,2,4]triazepine-4-carboxamido]-4-oxobutanoic acid]
[1]; Homo sapiens, PBMC, Table 17
  IC50: 5000 nM
IL-1β, human whole blood; Homo sapiens, Table 17
  IC50: 5500 nM

From US20120165319A1, “INHIBITORS OF INTERLEUKIN-1 BETA CONVERTING ENZYME” (VERTEX PHARMACEUTICALS INCORPORATED, priority 1995, published 2012)
